In patent US11733232B2, “Method for producing disease modeling non-human animal, disease modeling non-human animal, and method for screening drug and method for determining risk of disease using the same” (National University Corporation Hokkaido University, priority 2017, dated 2023):

Assays:
Type in all cases: in vivo, C57BL/6 mice
[1] = tested on: mice in which sleep disorder was induced followed by transfer of EAE-pathogenic CD4 positive T cells; test: Pathological conditions (EAE clinical score, mortality, fecal occult blood) of disease modeling mice
Protocol: Loading PAWW stress and induction of sleep disorder thereby were performed as described previously (Miyazaki, K. et al., PloS one, 2013, 8, e55452). 6-8 weeks old C57BL/6 mice were individually maintained in plastic cages with running wheels for habituation. Then, through loading PAWW stress by replacing wood beddings in the cages with water having depth of 1.5 cm to make the mice exercise continuously on the wheel for 2 days, sleep disorder was induced in the mice.
Preparation and transfer of EAE-pathogenic CD4 positive T cells were performed as described previously (Arima, Y. et al., Cell., 2012, 148, 447-457; Arima, Y. et al., eLife, 2015, 4, e08733; Ogura, H. et al., Immunity, 2008, 29, 628-636). Briefly, C57BL/6 mice were injected subcutaneously with a MOG (35-55) peptide (Sigma-Aldrich Co. LLC.) together with complete Freund's adjuvant (Sigma-Aldrich Co. LLC.) at the base of the tail, then 0, 2, and 7 days after MOG peptide injection, the mice were further injected intravenously with pertussis toxin (Sigma-Aldrich Co. LLC.). 9 days after MOG peptide injection, lymphocytes were collected from the spleens of the mice, sorted with anti-CD4 microbeads (Miltenyi Biotec, Inc.) to obtain a cell population rich in CD4 positive T cells. The resulting cell population (4×10^6 cells) was co-cultured with MOG peptide-pulsed irradiated spleen cells (1×10^7 cells) for 2 days in the presence of rIL-23 (10 ng/mL; R & D Systems, Inc.). Cells were collected from the culture medium, enriched with the anti-CD4 microbeads, and EAE-pathogenic CD4 positive T cells were prepared.
2 days after starting stress load described in (i) above, the EAE-pathogenic CD4 positive T cells (1.5×10^7 cells) prepared in (ii) above were transferred to the mice by intravenous injection to produce disease modeling mice. Also, mice into which EAE-pathogenic CD4 positive T cells were transferred without stress load, mice into which EAE-pathogenic CD4 positive T cells were not transferred after stress load, mice without stress load and without EAE-pathogenic CD4 positive T cells transfer, were prepared.
Pathological conditions of EAE in the mice prepared in Example 1 were evaluated with clinical score. Clinical score was determined as described previously (Arima, Y. et al., Cell, 2012, 148, 447-457; Arima, Y. et al., eLife, 2015, 4, e08733; Ogura, H. et al., Immunity, 2008, 29, 628-636). Clinical scores represent the severity of encephalomyelitis symptoms, and the scores increase with increasing the severity. A score of 0 is equivalent to normal state without abnormal findings, and a score of 5 is equivalent to death.
(§1) Pathological conditions of gastroenteritis in the mice prepared in Example 1 (1) were evaluated on 10 days after the transfer of EAE-pathogenic CD4 positive T cells. Stools collected from each mouse were suspended in saline (20 mL/g stool), the supernatants obtained by centrifugation (8000 rpm, 5 minutes) were diluted to 10 times with saline, and fecal occult blood test was performed with Hemastix (Registered) (Siemens Healthcare Pty, Ltd.). Bloody stool scores were calculated according to the scoring method described on the package of Hemastix.

[2] = tested on: PVN and DMH neurons; test: Anti-phosphorylated cfos immunostaining of the hypothalamus (PVN and DMH) after microinjection at the specific blood vessels; conditions: 2 days after
From the text: Then, whether local inflammation in the brain causes a disease was investigated by directly injecting an inflammatory cytokine at the specific blood vessels. The head of a C57BL/6 mouse with induction of sleep disorder or a control mouse was fixed to a stereotactic device under anesthesia, fur above the skull was shaved, and the skin was cleaned with 70% ethanol. A 30-gauge needle was lowered toward the specific blood vessels (coordinates: AP −1.06 mm; ML 1 mm; DV 2.25 mm), and EAE-pathogenic CD4 positive T cells (1×10^6 cells)+bone marrow derived dendritic cells pulsed with MOG (5×10^5 cells), IFN-γ (50 ng; PeproTech, Inc.)+IL-17A (50 ng; R&D Systems, Inc.), or IL-6 (50 ng; Toray Industries, Inc.)+IL-17A (50 ng) in 0.2 μL each were microinjected over 90 seconds as described previously (Kim et al. (2011), Mol. Brain, 19, 4-6). […]
(§2) Furthermore, at the specific blood vessels of mice in which sleep disorder was induced, IL-6 and IL-17A, with or without a selective antagonist for P2X receptor which is an ATP receptor, A438079 (1 μg), were microinjected, in the same way as in the Example 3 (2). Phosphorylated cfos in the third ventricular region, bloody stool scores, and mortality were evaluated 2 days after the microinjection, and the results are shown in FIG. 34 and FIG. 35. […]

[3] = tested on: specific blood vessels in the boundary area of the third ventricle, thalamus, and dentate gyrus; test: Cell accumulation at the specific blood vessels of disease modeling mice (immunohistochemistry, flow cytometry); conditions: 0.2 μL of 2 mg/ml microinjected at the specific blood vessels 4 days before T cell transfer; FIG. 22
From the text: Accumulation of MHC class II positive cells and CD4 positive T cells in the mice prepared in Example 1 (1) was investigated. The fifth lumbar vertebra and the brain were removed from the mice 10 days after transferring EAE-pathogenic CD4 positive T cells, embedded in SCEM (SECTION-LAB Co., Ltd.), and sliced to sections with a thickness of 10 μm using a microtome device, CM3050 (Leica Microsystems GmbH). Sections were collected using Cryofilm type IIIC (16UF) (SECTION-LAB Co., Ltd.), subjected to hematoxylin eosin staining, or to immunohistochemical staining with an anti-MHC class II antibody or anti-CD4 antibody, and analyzed by BZ-9000 microscope (KEYENCE Corporation) using HS ALL software in BZ-II analyzer (KEYENCE Corporation).
Furthermore, brains were removed from the mice 9 days after transferring EAE-pathogenic CD4 positive T cells, dissected into each parts of the cerebellum and brain stem, cortex, and hippocampus and interbrain, and enzymatically digested with Neural Tissue Dissection kit (Miltenyi Biotec Company) to prepare single cell suspension. […] Then, the cells were analyzed using CyAn flow cytometer (Beckman Coulter Corporation), and the obtained data were analyzed using Summit software (Beckman Coulter Corporation) or FlowJo software (Tree Star, Inc.). […]

[4] = tested on: dopamine/noradrenergic neurons; test: Immunostaining of third ventricular regions of chemically sympathectomized mice (tyrosine hydroxylase, phosphorylated CREB); conditions: 0.2 μL of 2 mg/ml microinjected at the specific blood vessels 4 days before T cell transfer, 10 days after transfer, FIG. 21
Protocol: 0.2 μL each of 6-hydroxydopamine (6-OHDA) hydrochloride (2 mg/ml), which is a neurotoxin denaturalizing dopamine/noradrenergic neurons, or a vehicle 0.02% ascorbic acid was microinjected at the specific blood vessels of C57BL/6 mice 4 days before transferring EAE-pathogenic CD4 positive T cells (2 days before stress load), in the same way as in the Example 3 (2). Subsequently, induction of sleep disorder and transfer of EAE-pathogenic CD4 positive T cells were performed in the same way as in the Example 1 (1).
Photographs of the immunostained third ventricular regions of chemically sympathectomized mice 10 days after transferring EAE-pathogenic CD4 positive T cells are shown in FIG. 21. The immunostaining was performed with an anti-tyrosine hydroxylase antibody or anti-phosphorylated CREB antibody. 6-OHDA reduced tyrosine hydroxylase-positive sympathetic neurons, and suppressed phosphorylation of CREB induced by noradrenergic receptor-mediated signal transduction.

[5] = tested on: C57BL/6 mouse with induction of sleep disorder; test: Microinjection at the specific blood vessels of mice with induced sleep disorder: mortality and bloody stool scores; conditions: 1 μg microinjected together with IL-6 and IL-17A at the specific blood vessels, 2 days after
Protocol: as §1
Then, whether local inflammation in the brain causes a disease was investigated by directly injecting an inflammatory cytokine at the specific blood vessels. The head of a C57BL/6 mouse with induction of sleep disorder or a control mouse was fixed to a stereotactic device under anesthesia, fur above the skull was shaved, and the skin was cleaned with 70% ethanol. […]
as §2

## Cc1c(OCC(F)(F)F)ccnc1C[S+]([O-])c1nc2ccccc2[nH]1 (stereo not shown) [lansoprazole]
[1]; 30 mg/kg body weight orally daily after transfer, control CMC, FIG. 6B
  mortality 10 days after the transfer: remarkably reduced
[1]; 30 mg/kg body weight orally daily after transfer, control CMC, FIG. 6C
  bloody stool scores: remarkably reduced
[1]; 30 mg/kg body weight orally daily after transferring EAE-pathogenic CD4 positive T cells, control carboxymethyl cellulose, FIG. 6A
  clinical scores: remarkably reduced

## Nc1ncnc2c1ncn2[C@@H]1O[C@H](COP(=O)(O)OP(=O)(O)OP(=O)(O)O)[C@@H](O)[C@H]1O [ATP]
[2]; microinjected at the specific blood vessels of mice with sleep disorder (IFN-γ+IL-17A 50 ng each; ATP 2 μg), FIG. 30
  phosphorylated cfos, that is, neural activation, in the PVN and DMH: activated

## Cl.NCCc1cc(O)c(O)cc1O [6-OHDA, 6-hydroxydopamine hydrochloride]
[3]
  accumulation of CD4 positive T cells at the specific blood vessels: suppressed
  accumulation of CD11b positive MHC class II-highly expressing cells at the specific blood vessels: suppressed
[1]; 0.2 μL of 2 mg/ml microinjected at the specific blood vessels 4 days before T cell transfer, 10 days after transfer, FIG. 23B
  mortality: improved
[1]; 0.2 μL of 2 mg/ml microinjected at the specific blood vessels 4 days before T cell transfer, FIG. 23A
  clinical scores: improved
[4]
  phosphorylation of CREB: suppressed
[4]; vehicle 0.02% ascorbic acid
  tyrosine hydroxylase-positive sympathetic neurons: reduced

## Clc1cccc(-c2nnnn2Cc2cccnc2)c1Cl [A438079]
[2]; 1 μg microinjected together with IL-6 and IL-17A at the specific blood vessels of mice with sleep disorder, FIG. 34
  neural activation in the PVN and DMH (phosphorylated cfos): suppressed
[5]; FIG. 35A
  mortality: improved
[5]; FIG. 35B
  gastroenteritis (bloody stool scores): improved

## NCc1cc(=O)[nH]o1 [Muscimol, muscimol]
[1]; 0.25 mg/mL microinjected into the DMH 5 days after T cell transfer, 10 days after transfer, FIG. 29B
  mortality: remarkably improved
[1]; 0.25 mg/mL microinjected into the DMH 5 days after T cell transfer, 10 days after transfer, FIG. 29C
  bloody stool scores: remarkably improved
[1]; 0.25 mg/mL microinjected into the DMH 5 days after T cell transfer, vehicle saline, FIG. 29A
  clinical scores: remarkably improved
